Experimental data reported in ChEMBL document CHEMBL3585242, “Pyridine Nucleosides Neopetrosides A and B from a Marine Neopetrosia sp. Sponge. Synthesis of Neopetroside A and Its β-Riboside Analogue” (J Nat Prod, 2015).
The source made the active and inactive calls. The calls are words filed in the database; no cut-off is given here.

Key:
C2C12 [1] = assay: Cytotoxicity against mouse C2C12 cells assessed as cell viability up to 100 uM after 24 hrs by CellTox green assay; assay type: cell-based; conditions: c2c12, 24 h
C2C12 [2] = assay: Upregulation of mitochondrial function in mouse C2C12 cells assessed as increase in mitochondrial ATP level at 10 uM after 1 hr by ToxGlo assay relative to control; assay type: functional, cell-based
C2C12 [3] = assay: Upregulation of mitochondrial function in mouse C2C12 cells assessed as increase in mitochondrial oxygen consumption rate at 10 uM after 1 hr relative to control; assay type: functional, cell-based

Compound: O=C([O-])c1ccc[n+]([C@H]2O[C@H](COC(=O)c3ccc(O)cc3)[C@@H](O)[C@H]2O)c1
- Activity (C2C12 [1]): Non-toxic
- Activity (C2C12 [2]): Active
- Activity (C2C12 [3]): Active
